Tests used:
[1] = molecular target: Glutamate receptor ionotropic, AMPA (Mus musculus, UniProt P23818+P23819+Q9Z2W8+Q9Z2W9)
Description: Compound was tested for binding affinity against Ionotropic glutamate receptor AMPA using [3H]AMPA as a radioligand.

Mus musculus [2] = assay: In vivo AMPA antagonistic activity was determined by measuring ability to antagonize AMPA induced lethal convulsions in mice at 60 min upon intraperitoneal administration; assay type: functional; conditions: ip, 1 h
Mus musculus [3] = assay: In vivo AMPA antagonistic activity was determined by measuring ability to antagonize AMPA induced lethal convulsions in mice at 15 min upon intraperitoneal administration; assay type: functional; conditions: ip, 0.25 h

Row | SMILES | Ki [1] [µM] | ED50 (Mus musculus [2]) [mg/kg] | ED50 (Mus musculus [3]) [mg/kg]
1 | CCn1c(=O)c(=O)[nH]c2cc([N+](=O)[O-])c(-n3cccc3)cc21 | 0.85 | 12 | > 50
2 | O=c1[nH]c2cc([N+](=O)[O-])c(-n3cccc3)cc2n(C2CC2)c1=O | 3.5 | – | –
3 | CCC(CC)Cn1c(=O)c(=O)[nH]c2cc([N+](=O)[O-])c(-n3cccc3)cc21 | 6 | – | –
4 | CNC(=O)Cn1c(=O)c(=O)[nH]c2cc(C(F)(F)F)c(-n3cccc3)cc21 | 20 | – | –
5 | O=C(O)Cn1c(=O)c(=O)[nH]c2cc([N+](=O)[O-])c(-n3cccc3)cc21 | 0.07 | 30 | 30
6 | Oc1nc2cc(Cl)c(-n3cccc3)cc2nc1O | 20 | – | –
7 | O=C(Cn1c(=O)c(=O)[nH]c2cc([N+](=O)[O-])c(-n3cccc3)cc21)NCc1ccccc1 | 20 | – | –
8 | CCOC(=O)Cn1c(=O)c(=O)[nH]c2cc([N+](=O)[O-])c(-n3cccc3)cc21 | 0.91 | 26 | > 50
9 | CCNC(=O)Cn1c(=O)c(=O)[nH]c2cc([N+](=O)[O-])c(-n3cccc3)cc21 | 2.7 | – | –
10 | O=C(O)CCn1c(=O)c(=O)[nH]c2cc(C(F)(F)F)c(-n3cccc3)cc21 | 0.39 | > 50 | > 50
11 | NS(=O)(=O)c1cccc2c1c([N+](=O)[O-])cc1nc(O)c(O)nc12 [NBQX] | – | > 50 | > 50
12 | Oc1nc2cc(C(F)(F)F)cc(-n3cccc3)c2nc1O | > 25 | – | –
13 | COC(=O)Cn1c(=O)c(=O)[nH]c2cc(C(F)(F)F)c(-n3cccc3)cc21 | > 25 | – | –
14 | O=c1[nH]c2cc(Cl)c(-n3cccc3)cc2n(C2CCCCC2)c1=O | 10 | – | –
15 | CCOC(=O)CCn1c(=O)c(=O)[nH]c2cc([N+](=O)[O-])c(-n3cccc3)cc21 | 0.26 | 14 | > 30
16 | Oc1nc2cc(-n3cccc3)c(C(F)(F)F)cc2nc1O | 3 | – | –
17 | O=C(Cn1c(=O)c(=O)[nH]c2cc([N+](=O)[O-])c(-n3cccc3)cc21)Nc1ccccc1 | 2.1 | – | –
18 | O=C(O)Cn1c(=O)c(=O)[nH]c2cc(C(F)(F)F)c(-n3cccc3)cc21 | 0.17 | > 50 | > 50
19 | O=C(CCn1c(=O)c(=O)[nH]c2cc(C(F)(F)F)c(-n3cccc3)cc21)NCc1ccccc1 | 8 | – | –
20 | O=c1[nH]c2cc(-n3cccc3)c([N+](=O)[O-])cc2n(C2CCCCC2)c1=O | 25 | – | –
21 | O=[N+]([O-])c1cc2nc(O)c(O)nc2cc1-n1cccc1 | 0.4 | 31 | 21
22 | O=C(O)CCn1c(=O)c(=O)[nH]c2cc([N+](=O)[O-])c(-n3cccc3)cc21 | 0.33 | > 30 | > 30
23 | CS(=O)(=O)c1cc2[nH]c(=O)c(=O)n(C3CCCCC3)c2cc1-n1cccc1 | 15 | – | –
24 | CCOC(=O)CCn1c(=O)c(=O)[nH]c2cc(C(F)(F)F)c(-n3cccc3)cc21 | 0.58 | – | –
25 | O=C(Cn1c(=O)c(=O)[nH]c2cc([N+](=O)[O-])c(-n3cccc3)cc21)NCCc1ccccc1 | 20 | – | –
26 | O=c1[nH]c2cc(C(F)(F)F)c(-n3cccc3)cc2n(C2CCCCC2)c1=O | 1.6 | – | –
27 | O=c1[nH]c2cc([N+](=O)[O-])c(-n3cccc3)cc2n(C2CCCCC2)c1=O | 0.4 | 22 | > 50

From ChEMBL document CHEMBL1128942, “Pyrrolylquinoxalinediones: A new class of AMPA receptor antagonists” (Bioorg Med Chem Lett, 1996)
